Measurements reported in US20100179158A1, “INHIBITORS OF CYCLIC AMP PHOSPHODIESTERASES” (priority 2007, published 2010).

What was measured:
PDE2A [1] = target: T1, PDE2A (Mus musculus, UniProt Q922S4); experiment: cAMP assay in yeast strain LWP371 expressing PDE2A; assay type: cell-based, murine; conditions: 20 μM EHNA as compared to 200 μM, one-hour time point
T1 construct: targets used in the assays are full-length proteins (as opposed to simply the catalytic domain); expressed in transfected cells; host or cells: Schizosaccharomyces pombe strains LWP367 and LWP371
T1 sequence (Q922S4 1-939): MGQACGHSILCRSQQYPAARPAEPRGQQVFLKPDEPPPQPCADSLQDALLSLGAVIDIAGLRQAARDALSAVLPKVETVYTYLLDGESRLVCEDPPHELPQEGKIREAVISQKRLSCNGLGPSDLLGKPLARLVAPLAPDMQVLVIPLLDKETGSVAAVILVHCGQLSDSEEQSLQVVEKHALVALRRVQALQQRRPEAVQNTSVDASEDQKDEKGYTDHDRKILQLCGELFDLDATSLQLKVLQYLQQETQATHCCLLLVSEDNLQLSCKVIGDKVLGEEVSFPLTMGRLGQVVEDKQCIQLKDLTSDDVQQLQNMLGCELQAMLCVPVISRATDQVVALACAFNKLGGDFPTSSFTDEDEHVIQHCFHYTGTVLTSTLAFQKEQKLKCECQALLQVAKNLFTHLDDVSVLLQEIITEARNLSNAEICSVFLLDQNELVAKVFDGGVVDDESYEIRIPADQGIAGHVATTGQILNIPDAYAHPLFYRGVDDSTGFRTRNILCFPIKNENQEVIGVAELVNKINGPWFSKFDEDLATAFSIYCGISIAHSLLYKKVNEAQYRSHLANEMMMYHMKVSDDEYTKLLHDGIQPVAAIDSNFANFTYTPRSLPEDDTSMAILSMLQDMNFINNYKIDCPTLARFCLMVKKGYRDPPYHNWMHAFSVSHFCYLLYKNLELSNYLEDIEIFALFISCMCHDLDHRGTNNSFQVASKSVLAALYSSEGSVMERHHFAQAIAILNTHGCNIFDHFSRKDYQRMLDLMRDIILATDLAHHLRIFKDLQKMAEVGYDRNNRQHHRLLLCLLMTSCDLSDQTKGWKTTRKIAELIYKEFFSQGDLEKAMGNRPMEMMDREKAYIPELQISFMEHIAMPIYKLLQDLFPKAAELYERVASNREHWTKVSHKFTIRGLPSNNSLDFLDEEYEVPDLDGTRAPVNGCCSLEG
Method: (§1) β-galactosidase assays and characterization of 5FOA-sensitivity were carried out as previously described^10. cAMP assays were performed on exponential phase cells grown in EMM complete medium (3% glucose), using the Assay Designs cAMP EIA kit, according to manufacturer's instructions (Assay Designs, Ann arbor, MI).
(§2) Thus, PDE inhibition can be indirectly quantitated by measuring the effect of a compound on cAMP levels in target yeast strains.

PDE2A [2] = target: T1, PDE2A; experiment: fbp1-lacZ β-galactosidase assay, PDE2A strain LWP367; assay type: cell-based, murine; conditions: specific activity per milligram of soluble protein, average ± SD
Method: as §1
(§3) The effect of known PDE inhibitors on the expression of the fbp1-lacZ fusion in murine PDE-expressing strains was tested. […] For Table 4 β-galactosidase activity was determined from 3 to 4 independent exponential phase cultures. The average±SD represents specific activity per milligram of soluble protein.

PDE8A [3] = target: T2, PDE8A (Mus musculus, UniProt O88502); experiment: cAMP assay in yeast strain CHP1141 expressing PDE8A; assay type: cell-based, murine; conditions: rolipram 20 and 200 μM, one-hour time point
T2 construct: targets used in the assays are full-length proteins (as opposed to simply the catalytic domain); expressed in transfected cells; host or cells: Schizosaccharomyces pombe strains DDP13 and CHP1141
T2 sequence (O88502 1-823): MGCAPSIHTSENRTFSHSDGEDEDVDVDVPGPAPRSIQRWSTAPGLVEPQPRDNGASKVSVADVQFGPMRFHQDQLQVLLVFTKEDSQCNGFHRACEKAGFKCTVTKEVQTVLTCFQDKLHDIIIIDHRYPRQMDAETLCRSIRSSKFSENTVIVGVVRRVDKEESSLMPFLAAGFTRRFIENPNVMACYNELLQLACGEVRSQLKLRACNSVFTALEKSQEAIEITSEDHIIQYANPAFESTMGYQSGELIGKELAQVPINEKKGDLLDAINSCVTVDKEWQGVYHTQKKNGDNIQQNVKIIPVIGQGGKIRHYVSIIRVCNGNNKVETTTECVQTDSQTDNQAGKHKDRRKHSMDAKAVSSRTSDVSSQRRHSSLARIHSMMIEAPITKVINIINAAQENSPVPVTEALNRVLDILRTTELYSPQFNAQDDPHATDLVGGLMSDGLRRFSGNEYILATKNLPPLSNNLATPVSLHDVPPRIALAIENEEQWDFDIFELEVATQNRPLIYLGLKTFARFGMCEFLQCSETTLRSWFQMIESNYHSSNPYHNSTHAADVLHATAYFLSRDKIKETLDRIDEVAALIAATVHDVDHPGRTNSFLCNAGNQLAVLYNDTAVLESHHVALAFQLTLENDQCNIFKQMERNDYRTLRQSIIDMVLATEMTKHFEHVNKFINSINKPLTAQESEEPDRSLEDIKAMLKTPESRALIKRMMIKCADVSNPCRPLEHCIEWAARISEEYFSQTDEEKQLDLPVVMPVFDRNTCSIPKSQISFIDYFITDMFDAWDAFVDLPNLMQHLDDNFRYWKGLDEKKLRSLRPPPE
Method: as §1, §2

Cgs2 = target: T3, Cgs2 (Schizosaccharomyces pombe, UniProt P36599); experiment: fbp1-lacZ β-galactosidase assay, Cgs2 strain CHP861; assay type: cell-based; conditions: specific activity per milligram of soluble protein, average ± SD
T3 construct: the wild-type S. pombe Cgs2^+ PDE; endogenous in cells; host or cells: Schizosaccharomyces pombe strain CHP861
T3 sequence (P36599 1-346): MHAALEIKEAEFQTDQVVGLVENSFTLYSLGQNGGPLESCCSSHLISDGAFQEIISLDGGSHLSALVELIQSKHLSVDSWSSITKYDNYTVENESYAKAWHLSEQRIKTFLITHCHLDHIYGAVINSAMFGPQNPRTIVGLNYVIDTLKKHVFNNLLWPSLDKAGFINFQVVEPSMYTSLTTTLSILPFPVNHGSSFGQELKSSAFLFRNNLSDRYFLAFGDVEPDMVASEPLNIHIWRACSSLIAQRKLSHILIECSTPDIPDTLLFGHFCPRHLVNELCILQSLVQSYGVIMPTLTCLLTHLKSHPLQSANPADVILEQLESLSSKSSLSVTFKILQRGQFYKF
Method: as §1, §3

PDE8A [4] = target: T2, PDE8A; experiment: fbp1-lacZ β-galactosidase assay, PDE8A strain DDP13; assay type: cell-based, murine; conditions: specific activity per milligram of soluble protein, average ± SD
Method: as §1, §3

[5] = tested on: PDE2A, PDE4A, PDE4B, Cgs2; experiment: High throughput 5FOA growth screens of bioactive libraries; assay type: cell-based, murine; Schizosaccharomyces pombe; conditions: average 20 μM; composite Z score cut-off ≧8.53
Method: High throughput drug screens were carried out at the Broad Institute's Chemical Biology Program screening facility (Broad Institute, Cambridge, Mass.). Depending upon the strain, cultures were pregrown to exponential phase in EMM complete medium containing from 0.5 to 2.5 mM cAMP to repress fbp1-ura4 transcription. […] Starting cell concentrations ranged from 0.5×10^5 to 4×10^5 cells/ml depending on the screening strain. […] Other positive control dishes contained 5 mM cAMP in the 5FOA medium. Cultures were grown for 48 hours at 30° C., sealed in an airtight container with moist paper towels to prevent evaporation. Optical densities (OD600) of cultures were measured using a microplate reader. Bioinformatic analysis of the results to determine composite Z scores was performed as previously described^30, 31.

[6] = tested on: PDE4A, PDE4B, PDE4D, PDE7A; experiment: Overall PDE inhibitor profile from the yeast assays (table footnotes, summary); assay type: cell-based
Excerpt: PDE inhibitors were identified using methods described herein, such as high throughput drug screens on genetically engineered fission yeast strains that express drug targets (e.g., PDE4A and/or PDE4B, which are anti-inflammatory targets). PDE inhibitors were identified based on their ability to stimulate growth and compounds were identified because they were effective in live cells. In addition, targets used in the assays are full-length proteins (as opposed to simply the catalytic domain) and the assay used included a built-in toxicity test, permeability test and stability test. The inhibitors identified display a very high degree of target specificity. Compounds identified include inhibitors that act on two of three PDE4 family enzymes and inhibitors that act on combinations of PDE4 and PDE7 strains. […] Limited inhibition of PDE4D by a PDE inhibitor is desirable, in view of the fact that inhibition of PDE4D causes emesis and cardiac arrhythmias. Subtype specificity was confirmed by means of cAMP assays.
Cells were pregrown in EMM medium [MP Biomedicals (Solon, OH), 3% glucose, filter-sterilized to avoid carmelization, which would introduce variability into the optical density of the medium] containing from 0 mM to 2.5 mM cAMP (or either 0.5 mM or 1.0 mM cGMP). This was to repress expression of the fbp1-ura4 reporter prior to exposure of cells to 5FOA medium. Cells were grown at 30° C. to exponential phase (approximately 10^7 cells/ml). Cells were collected by centrifugation and resuspended in 5FOA medium, and 25 μl were transferred to 384-well microtiter dishes (untreated, with flat clear bottoms) that had been pre-filled with 25 μl 5FOA medium and pre-pinned with 100 nl of compounds (stock solutions were generally 10 mM). Starting cell concentrations ranged from 0.5×10^5 to 4×10^5 cells/ml depending on the screening strain. […] Other positive control dishes contained 5 mM cAMP in the 5FOA medium for PDEs that lack appropriate control compounds. Cultures were grown for 48 hours at 30° C., sealed in an airtight container with moist paper towels to prevent evaporation. Optical densities (OD600) of cultures were measured using a microplate reader. Bioinformatic analysis of the results to determine composite Z scores was performed as previously described (1, 3).

PDE7A = target: T4, PDE7A (Homo sapiens, UniProt Q13946); experiment: cAMP assay in yeast strain expressing PDE7A; assay type: cell-based
T4 construct: targets used in the assays are full-length proteins (as opposed to simply the catalytic domain); expressed in transfected cells; host or cells: Schizosaccharomyces pombe, gene integrated at the cgs2 locus
T4 sequence (Q13946 whole entry, the tested form may be a part): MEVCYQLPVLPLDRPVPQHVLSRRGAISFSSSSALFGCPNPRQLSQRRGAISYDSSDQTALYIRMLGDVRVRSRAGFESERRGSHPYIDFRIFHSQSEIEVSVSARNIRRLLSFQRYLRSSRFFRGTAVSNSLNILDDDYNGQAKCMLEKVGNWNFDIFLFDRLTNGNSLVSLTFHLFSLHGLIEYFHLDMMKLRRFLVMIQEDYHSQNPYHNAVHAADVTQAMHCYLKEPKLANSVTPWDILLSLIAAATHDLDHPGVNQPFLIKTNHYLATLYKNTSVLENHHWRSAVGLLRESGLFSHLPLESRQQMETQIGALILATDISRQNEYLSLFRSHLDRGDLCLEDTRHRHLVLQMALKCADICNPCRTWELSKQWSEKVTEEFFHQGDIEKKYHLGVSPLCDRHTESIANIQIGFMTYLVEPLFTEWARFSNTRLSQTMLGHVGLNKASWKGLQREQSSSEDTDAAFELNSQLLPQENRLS

With `CCCCCC[C@@H]([C@@H](C)O)n1cnc2c(N)ncnc21` (racemic) [EHNA, erythro-9-(2-hydroxy-3-nonyl)adenine] the “PDE2A inhibition judged by cAMP levels” value (PDE2A [1]) was “partial inhibition”, the “β-galactosidase activity, PDE2A strain” value (PDE2A [2]; 5 μM EHNA) was 473 ± 19 and the “β-galactosidase activity, PDE2A strain” value (PDE2A [2]; 20 μM EHNA) was 197 ± 51. For the same compound, the “β-galactosidase activity, PDE2A strain” value (PDE2A [2]; 200 μM EHNA) was 45 ± 3.

In the case of `COc1ccc(C2CNC(=O)C2)cc1OC1CCCC1` (stereo not drawn) [Rolipram, rolipram], the “cAMP levels in PDE8A strain on treatment” value (PDE8A [3]) is reported as “completely insensitive”, the “β-galactosidase activity, Cgs2 strain” value (Cgs2; 50 μM Rolipram) is reported as 1807 ± 446 and the “β-galactosidase activity, Cgs2 strain” value (Cgs2; 100 μM Rolipram) is reported as 1784 ± 429. The “β-galactosidase activity, PDE8A strain” value (PDE8A [4]; 50 μM Rolipram) was 253 ± 46, the “β-galactosidase activity, PDE8A strain” value (PDE8A [4]; 100 μM Rolipram) was 237 ± 67 and the “Result in high throughput screens for 5FOA-resistant growth” value [5] was “only affected the PDE4A- and PDE4B-expressing strains”.

In the case of `COc1ccc2c(c1)C1(C)CCC(=O)CC1CC2` (single isomer, unassigned) [Compound 11], the “PDE inhibitor profile in words (table footnote / summary)” value [6] is reported as “(3) Strong PDE7A inhibitor” and the “cAMP Response (%BRL50481), PDE 7A” value (PDE7A) is reported as 89.00 %BRL50481.
